Measurements: US9676773B2, “Azaindole derivative” (TAIHO PHARMACEUTICAL CO., LTD., priority 2014, dated 2017)

Key:
[1] = target: T1, purified recombinant human JAK2 protein (Homo sapiens, UniProt O60674); test: Measurement of JAK2 kinase-inhibitory activity; type: biochemical; conditions: FL-Peptide 22 1 μM, ATP 10 μM, 25° C., 80 minutes
T1 construct: purchased Carna Biosciences, Inc
Protocol: 2) Measurement of JAK2 Kinase-Inhibitory Activity
The activity of the compound of the present invention to inhibit the activity of JAK2 kinase was measured.
(§1) Among materials for the measurement of this inhibitory activity, a substrate peptide and a kinase protein were acquired as follows. As such a substrate peptide, FL-Peptide 22 (Perkin Elmer Corp.) was purchased. As such a kinase protein, a purified recombinant human JAK2 protein (Carna Biosciences, Inc.) was purchased.
The method for measuring the inhibitory activity is as follows. First, a serial dilution of the compound of the present invention was prepared by the same method as that described in the above section regarding JAK1. This serial dilution solution (the final concentration of DMSO upon a kinase reaction: 5.0%) or DMSO (final concentration: 5.0%) was mixed with a solution containing the substrate peptide (final concentration: 1 μM), magnesium chloride (final concentration: 10 mM) and ATP (final concentration: 10 μM) in a buffer for kinase reaction (15 mM Tris (pH 7.5), 2 mM dithiothreitol and 0.01% Tween 20). Thereafter, a JAK2 protein was further added to the mixed solution, and the obtained mixture was then incubated at 25° C. for 80 minutes to carry out a kinase reaction. To the reaction solution, EDTA was added to a final concentration of 30 mM, so as to terminate the reaction. After termination of the reaction, the measurement and the data analysis were carried out by the same methods as those described in the above section regarding JAK1.

[2] = target: T2, purified recombinant human JAK1 protein (Homo sapiens, UniProt P23458); test: Measurement of JAK1 kinase-inhibitory activity; type: biochemical; conditions: substrate peptide 1 μM, ATP 75 M (so in the source), 25° C., 120 minutes
T2 construct: purchased Carna Biosciences, Inc
Protocol: 1) Measurement of JAK1 Kinase-Inhibitory Activity
The activity of the compound of the present invention to inhibit the activity of JAK1 kinase was measured.
as §1, with “a substrate peptide for QSS Assist™ JAK1-MSA assay kit (Carna Biosciences, Inc.)” for “FL-Peptide 22 (Perkin Elmer Corp.)”, “JAK1” for “JAK2”
The method for measuring the inhibitory activity is as follows. First, the compounds of the present invention were each dissolved in dimethyl sulfoxide (DMSO), and a serial dilution was then prepared by the use of DMSO. Subsequently, a serial dilution solution of the compound (the final concentration of DMSO upon a kinase reaction: 5.0%) or DMSO (final concentration: 5.0%) was mixed with a solution containing the substrate peptide (final concentration: 1 μM), magnesium chloride (final concentration: 5 mM) and ATP (final concentration: 75 µM) in a buffer for kinase reaction (20 mM HEPES (pH 7.5), 2 mM dithiothreitol and 0.01% Triton X-100). Thereafter, a JAK1 protein was further added to the mixed solution, and the obtained mixture was then incubated at 25° C. for 120 minutes to carry out a kinase reaction. To the reaction solution, EDTA was added to a final concentration of 30 mM, so as to terminate the reaction. Finally, with LabChip EZ Reader II (Perkin Elmer Corp.), an unphosphorylated substrate peptide (S) and a phosphorylated peptide (P) were subjected to microchannel capillary electrophoresis, so that the two peptides were separated from each other and were then detected. The amount of a phosphorylation reaction was obtained based on the heights of the peaks of S and P, and the concentration of the compound capable of inhibiting 50% of the phosphorylation reaction was defined as an IC50 value (nM).

T1 sequence (O60674 whole entry): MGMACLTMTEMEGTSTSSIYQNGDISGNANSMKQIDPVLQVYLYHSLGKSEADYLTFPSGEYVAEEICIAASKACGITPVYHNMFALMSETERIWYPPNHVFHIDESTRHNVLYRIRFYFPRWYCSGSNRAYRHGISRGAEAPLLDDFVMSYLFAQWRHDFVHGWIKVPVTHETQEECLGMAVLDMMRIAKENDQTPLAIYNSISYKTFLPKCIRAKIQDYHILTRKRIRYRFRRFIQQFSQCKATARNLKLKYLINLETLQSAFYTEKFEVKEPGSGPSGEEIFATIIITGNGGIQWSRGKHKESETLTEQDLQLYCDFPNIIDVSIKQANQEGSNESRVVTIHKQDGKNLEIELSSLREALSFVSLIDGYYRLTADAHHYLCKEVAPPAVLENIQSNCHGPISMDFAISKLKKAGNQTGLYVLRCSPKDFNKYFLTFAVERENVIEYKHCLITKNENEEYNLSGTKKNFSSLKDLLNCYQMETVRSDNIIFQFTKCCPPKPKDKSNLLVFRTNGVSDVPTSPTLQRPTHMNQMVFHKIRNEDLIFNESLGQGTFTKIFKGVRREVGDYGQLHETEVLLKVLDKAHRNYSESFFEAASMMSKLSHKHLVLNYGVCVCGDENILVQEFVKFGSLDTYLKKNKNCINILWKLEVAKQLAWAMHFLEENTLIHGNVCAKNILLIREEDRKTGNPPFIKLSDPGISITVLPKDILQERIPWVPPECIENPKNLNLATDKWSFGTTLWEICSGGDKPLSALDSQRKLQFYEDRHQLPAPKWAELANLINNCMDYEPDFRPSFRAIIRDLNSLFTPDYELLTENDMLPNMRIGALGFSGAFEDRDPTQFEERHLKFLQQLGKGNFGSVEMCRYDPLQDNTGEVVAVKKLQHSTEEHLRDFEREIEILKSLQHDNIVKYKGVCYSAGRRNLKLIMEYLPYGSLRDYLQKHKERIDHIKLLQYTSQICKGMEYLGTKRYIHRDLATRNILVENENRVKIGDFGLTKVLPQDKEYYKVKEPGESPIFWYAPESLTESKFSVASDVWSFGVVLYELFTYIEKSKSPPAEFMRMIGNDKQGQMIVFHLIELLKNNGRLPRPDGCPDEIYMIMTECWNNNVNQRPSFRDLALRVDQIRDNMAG
T2 sequence (P23458 whole entry): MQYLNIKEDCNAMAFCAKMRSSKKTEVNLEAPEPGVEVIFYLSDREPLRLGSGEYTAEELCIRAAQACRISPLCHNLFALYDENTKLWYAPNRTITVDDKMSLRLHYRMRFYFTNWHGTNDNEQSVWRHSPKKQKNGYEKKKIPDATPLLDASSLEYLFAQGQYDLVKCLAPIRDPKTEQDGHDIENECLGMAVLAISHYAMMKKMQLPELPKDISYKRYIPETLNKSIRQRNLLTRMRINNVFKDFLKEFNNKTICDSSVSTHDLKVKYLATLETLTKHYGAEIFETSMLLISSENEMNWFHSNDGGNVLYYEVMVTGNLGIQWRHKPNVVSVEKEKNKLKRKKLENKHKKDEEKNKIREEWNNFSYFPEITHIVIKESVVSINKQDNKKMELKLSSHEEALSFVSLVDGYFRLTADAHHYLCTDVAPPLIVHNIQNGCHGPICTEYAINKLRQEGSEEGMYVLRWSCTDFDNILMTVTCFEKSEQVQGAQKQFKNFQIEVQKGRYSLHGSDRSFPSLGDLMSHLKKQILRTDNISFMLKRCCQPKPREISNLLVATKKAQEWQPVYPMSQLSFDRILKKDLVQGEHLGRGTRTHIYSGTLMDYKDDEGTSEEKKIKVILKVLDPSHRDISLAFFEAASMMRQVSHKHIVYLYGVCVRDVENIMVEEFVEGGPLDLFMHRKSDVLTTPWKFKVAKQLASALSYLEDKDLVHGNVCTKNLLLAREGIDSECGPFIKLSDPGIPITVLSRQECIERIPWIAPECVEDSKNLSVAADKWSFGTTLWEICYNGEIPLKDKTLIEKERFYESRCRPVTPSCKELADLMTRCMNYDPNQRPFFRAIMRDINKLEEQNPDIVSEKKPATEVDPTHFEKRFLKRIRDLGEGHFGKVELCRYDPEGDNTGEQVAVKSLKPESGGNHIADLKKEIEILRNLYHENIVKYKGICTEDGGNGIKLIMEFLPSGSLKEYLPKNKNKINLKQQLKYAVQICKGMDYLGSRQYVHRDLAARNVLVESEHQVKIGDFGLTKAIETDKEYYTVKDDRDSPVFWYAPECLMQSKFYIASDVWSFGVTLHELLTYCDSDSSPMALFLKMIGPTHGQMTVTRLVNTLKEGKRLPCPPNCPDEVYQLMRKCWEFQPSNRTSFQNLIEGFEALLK

For `C1=C(c2ccnc3[nH]ccc23)CCCC1` [Comparative Example 1, reference compound], the IC50 [1] was 450 nM and the IC50 [2] was 1200 nM.
`C1=C(c2ccnc3[nH]ccc23)CCC1` [Comparative Example 2, 4-(Cyclopent-1-en-1-yl)-1H-pyrrolo[2,3-b]pyridine, reference compound] showed an IC50 [1] of 540 nM and an IC50 [2] of 2200 nM.
In the case of `Cc1nc(-c2c[nH]c3ncc(-c4ccccc4)cc23)cs1` [Comparative Example 3, 2-Methyl-4-(5-phenyl-1H-pyrrolo[2,3-b]pyridin-3-yl)thiazole, reference compound], the IC50 [1] is reported as 1600 nM and the IC50 [2] is reported as 2900 nM.
`C=CC(=O)NC1CCC=C(c2ccnc3[nH]cc(-c4ccccc4)c23)C1` (stereo not drawn) [Compound 1, N-(3-(3-Phenyl-1H-pyrrolo[2,3-b]pyridin-4-yl)cyclohex-3-en-1-yl)acrylamide] gave an IC50 [1] of 450 nM and an IC50 [2] of 740 nM.
`C=CC(=O)NC1CCC=C(c2ccnc3[nH]cc(-c4cn[nH]c4)c23)C1` (stereo not drawn) [Compound 3, N-(3-(3-(1H-Pyrazol-4-yl)-1H-pyrrolo[2,3-b]pyridin-4-yl)cyclohex-3-en-1-yl)acrylamide] showed an IC50 [1] of 570 nM and an IC50 [2] of 1900 nM.
Molecule `C=CC(=O)NC1CCC=C(c2ccnc3[nH]cc(-c4cccnc4OC)c23)C1` (stereo not drawn) [Compound 6, N-(3-(3-(2-Methoxypyridin-3-yl)-1H-pyrrolo[2,3-b]pyridin-4-yl)cyclohex-3-en-1-yl)acrylamide] has an IC50 [1] of 600 nM and an IC50 [2] of 1100 nM.
With `C=CC(=O)NC1CCC=C(c2ccnc3[nH]cc(-c4ccc(CO)o4)c23)C1` (stereo not drawn) [Compound 10, N-(3-(3-(5-(Hydroxymethyl)furan-2-yl)-1H-pyrrolo[2,3-b]pyridin-4-yl)cyclohex-3-en-1-yl)acrylamide] the IC50 [1] was 250 nM and the IC50 [2] was 1900 nM.
`C=CC(=O)NC1CCC=C(c2ccnc3[nH]cc(-c4ccco4)c23)C1` (stereo not drawn) [Compound 12, N-(3-(3-(Furan-2-yl)-1H-pyrrolo[2,3-b]pyridin-4-yl)cyclohex-3-en-1-yl)acrylamide] showed an IC50 [1] of 500 nM and an IC50 [2] of 780 nM.
In the case of `C=CC(=O)NC1CCC=C(c2ccnc3[nH]cc(-c4cc(CO)co4)c23)C1` (stereo not drawn) [Compound 14, N-(3-(3-(4-(Hydroxymethyl)furan-2-yl)-1H-pyrrolo[2,3-b]pyridin-4-yl)cyclohex-3-en-1-yl)acrylamide], the IC50 [1] is reported as 590 nM and the IC50 [2] is reported as 3200 nM.
Molecule `C=CC(=O)NC1CCC=C(c2ccnc3[nH]cc(C4=CCOC4)c23)C1` (stereo not drawn) [Compound 34, N-(3-(3-(2,5-Dihydrofuran-3-yl)-1H-pyrrolo[2,3-b]pyridin-4-yl)cyclohex-3-en-1-yl)acrylamide] has an IC50 [1] of 970 nM and an IC50 [2] of 2400 nM.
`C=CC(=O)NC1CCC=C(c2ccnc3[nH]cc(-c4ccc(F)nc4)c23)C1` (stereo not drawn) [Compound 37, N-(3-(3-(6-Fluoropyridin-3-yl)-1H-pyrrolo[2,3-b]pyridin-4-yl)cyclohex-3-en-1-yl)acrylamide] gave an IC50 [1] of 2400 nM and an IC50 [2] of 4400 nM.
`C=CC(=O)NC1CCC=C(c2ccnc3[nH]cc(-c4cnco4)c23)C1` (stereo not drawn) [Compound 48, N-(3-(3-(Oxazol-5-yl)-1H-pyrrolo[2,3-b]pyridin-4-yl)cyclohex-3-en-1-yl)acrylamide] was tested, and the IC50 [1] was 710 nM and the IC50 [2] was 2400 nM.
In the case of `C=CC(=O)NC1CCC=C(c2ccnc3[nH]cc(-c4nnco4)c23)C1` (stereo not drawn) [Compound 49, N-(3-(3-(1,3,4-Oxadiazol-2-yl)-1H-pyrrolo[2,3-b]pyridin-4-yl)cyclohex-3-en-1-yl)acrylamide], the IC50 [1] is reported as 980 nM and the IC50 [2] is reported as 3400 nM.
In the case of `C=CC(=O)NC1CCC=C(c2ccnc3[nH]cc(-c4nn(C)c(=O)o4)c23)C1` (stereo not drawn) [Compound 53, N-(3-(3-(4-Methyl-5-oxo-4,5-dihydro-1,3,4-oxadiazol-2-yl)-1H-pyrrolo[2,3-b]pyridin-4-yl)cyclohex-3-en-1-yl)acrylamide], the IC50 [1] is reported as 990 nM and the IC50 [2] is reported as 3900 nM.
With `C=CC(=O)NC1CCC=C(c2ccnc3[nH]cc(-c4nncs4)c23)C1` (stereo not drawn) [Compound 54] the IC50 [1] was 2100 nM and the IC50 [2] was 6900 nM.
For `C=CC(=O)N[C@H]1CCC=C(c2ccnc3[nH]cc(-c4nnco4)c23)C1` [Compound 55, (S)—N-(3-(3-(1,3,4-Oxadiazol-2-yl)-1H-pyrrolo[2,3-b]pyridin-4-yl)cyclohex-3-en-1-yl)acrylamide], the IC50 [1] was 260 nM and the IC50 [2] was 1000 nM.
Molecule `C=CC(=O)NC1CC=C(c2ccnc3[nH]cc(-c4nnco4)c23)C1` (stereo not drawn) [Compound 57, N-(3-(3-(1,3,4-Oxadiazol-2-yl)-1H-pyrrolo[2,3-b]pyridin-4-yl)cyclopent-3-en-1-yl)acrylamide] has an IC50 [1] of 880 nM and an IC50 [2] of 3500 nM.
In the case of `C=CC(=O)N[C@H]1CCC=C(c2ccnc3[nH]cc(-c4ccno4)c23)C1` [Compound 59], the IC50 [1] is reported as 430 nM and the IC50 [2] is reported as 1500 nM.
